From US20260167614A1, “IDENTIFICATION OF SMALL MOLECULES THAT RECRUIT AND ACTIVATE RNASE L” (UNIVERSITY OF FLORIDA RESEARCH FOUNDATION, INCORPORATED, priority 2022, published 2026) come the findings set out here.

In assay [1] the test system is miR-21. Put plainly: Global miRNA profiling in MDA-MB-231 cells. Type of assay: cell-based. Conditions: 377 miRNAs. The procedure: Two CRISPR-modified MDA-MB-231 cell lines with either a scrambled control guide RNA (“Control sgRNA”; RNase L is expressed) or with an RNase L-targeting guide RNA (“RNase L-Targeting sgRNA”; RNase L protein abundance is knocked down) were used to complete these studies.
For global miRNA profiling experiments, RT was completed using 2 μg total RNA and a Mir-X miRNA First Strand Synthesis Kit (Takara) in a total volume of 20 μL. The RT reaction was then plated into the wells of a 384-well qPCR plate containing pre-diluted forward and reverse primers for the miRNA of interest. RT-qPCR was performed on a QuantStudio5™ Real-Time PCR Instrument (Applied Biosystems) using Power SYBR Green Master Mix (Applied Biosystems). Data were analyzed using the ΔΔCt method,^11 followed by calculation of log 2 fold changes and −log 10 p-values. The software Perseus was used to calculate the false discovery rate (FDR) of 1% with a group variance of S0(0.1).

Assay [2] addresses T1, pre-miR-21 mutant and RNase L (Homo sapiens, UniProt Q05823, H672N).
T1 construct: GST (N, cleaved yes); made in house; host or cells: BL21 AI Escherichia coli
T1 sequence (Q05823 1-741 H672N): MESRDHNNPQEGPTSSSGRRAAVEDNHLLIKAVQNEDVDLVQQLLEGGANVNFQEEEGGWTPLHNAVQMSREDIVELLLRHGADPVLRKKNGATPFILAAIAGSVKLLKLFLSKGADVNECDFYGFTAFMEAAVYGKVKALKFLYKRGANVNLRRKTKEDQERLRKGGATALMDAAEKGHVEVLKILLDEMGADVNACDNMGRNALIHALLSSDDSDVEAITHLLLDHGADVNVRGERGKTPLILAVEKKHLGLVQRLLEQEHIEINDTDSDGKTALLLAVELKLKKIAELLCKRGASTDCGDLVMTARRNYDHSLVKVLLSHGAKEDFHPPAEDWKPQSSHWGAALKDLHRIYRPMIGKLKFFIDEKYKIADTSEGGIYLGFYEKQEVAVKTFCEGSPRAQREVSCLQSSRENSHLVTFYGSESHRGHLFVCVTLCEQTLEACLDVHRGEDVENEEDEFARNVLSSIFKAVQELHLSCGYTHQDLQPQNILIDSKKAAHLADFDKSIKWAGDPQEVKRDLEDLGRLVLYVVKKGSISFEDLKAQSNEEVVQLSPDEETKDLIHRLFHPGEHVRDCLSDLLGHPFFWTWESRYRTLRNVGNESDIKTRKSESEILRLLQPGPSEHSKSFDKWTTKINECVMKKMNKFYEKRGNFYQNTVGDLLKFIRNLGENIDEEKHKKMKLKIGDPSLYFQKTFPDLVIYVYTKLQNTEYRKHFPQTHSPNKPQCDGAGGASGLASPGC
Put plainly: Co-immunoprecipitation of mutant pre-miR-21 and RNase L. The format is binding. The conditions noted are these: base paired mutant pre-miR-21, inactive RNase L. The procedure: Co-Immunoprecipitation of pre-miR-2I and RNase L. Approximately 20,000 cpm of 32P 5′-end labeled WT or mutant pre-miR-21 or an RNA construct where the A-bulge was mutated to a base pair (5′-[…] UGGGCUGU-3′) was folded in 1× RNase L Assay Buffer for 1 min at 95° C. and cooled on ice for 10 min. Following cooling, β-mercaptoethanol (7 mM), ATP (50 μM), and MgCl2 (1 mM) were added to the solution. The solution was aliquoted, and compounds were incubated in solution for 15 min (1% DMSO final concentration). […] Beads were then washed with 1×PBS supplemented with 0.02% (v/v) Tween-20. Radioactive signal in the supernatant and associated with the beads was quantified by a Beckman Coulter LS6500 Liquid Scintillation Counter. Relative RNA enrichment was calculated by comparing the radioactive signal associated with beads compared to the total radioactive signal from the beads plus the supernatant.

In the case of `CNC(=O)[C@H](c1ccccc1)N(C)Cc1ccc(-c2cccc(-c3sccc3NC(=O)CCOCCOCCOCCC(=O)NCCN3CCN(c4ccc5nc(-c6c(N)c7c(F)cccc7[nH]c6=O)[nH]c5c4)CC3)c2)cc1` [RiboTAC 7, (S)—N-(2-(4-(2-(4-amino-5-fluoro-2-oxo-1,2-dihydroquinolin-3-yl)-1H-benzo[d]imidazol-6-yl)piperazin-1-yl)ethyl)-3-(2-(2-(3-((2-(4′-((methyl(2-(methylamino)-2-oxo-1-phenylethyl)amino)methyl)-[1,1′-biphenyl]-3-yl)thiophen-3-yl)amino)-3-oxopropoxy)ethoxy)ethoxy)propanamide], the miRNA profiling selectivity result in assay [1] is on record as “selectively down-regulated miR-21 across the transcriptome”. Further, the “co-immunoprecipitation of RNA with RNase L” value in assay [2] is “not its base paired mutant”.
